Data: the supplement of paper PMC10307832

What was measured:
Assay in all cases: relative viability (nuclei count vs DMSO), 5 days (fraction); higher = more cells survive
A-427 = test system: A-427
Procedure, shortened: (§1)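 Lung cancer cell lines were pin-tool dosed in 1536-well plates on the day after seeding, with either a lone drug or a fixed anchor-drug dose plus five library-drug doses (not always all listed) in √10 steps. Nuclei were counted on 4× images after 5 days. Relative viability is the ratio of treated-well to vehicle-well nuclei counts, with each value a median of duplicate plates.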

ABC-1 = test system: ABC-1
Procedure, shortened: as §1

EMC-BAC-2 = test system: EMC-BAC-2
Procedure, shortened: as §1

HARA = test system: HARA
Procedure, shortened: as §1

HOP-62 = test system: HOP-62
Procedure, shortened: as §1

LK-2 = test system: LK-2
Procedure, shortened: as §1

LXF-289 = test system: LXF-289
Procedure, shortened: as §1

NCI-H1792 = test system: NCI-H1792
Procedure, shortened: as §1

NCI-H1944 = test system: NCI-H1944
Procedure, shortened: as §1

NCI-H1993 = test system: NCI-H1993
Procedure, shortened: as §1

NCI-H2009 = test system: NCI-H2009
Procedure, shortened: as §1

NCI-H2170 = test system: NCI-H2170
Procedure, shortened: as §1

NCI-H3122 = test system: NCI-H3122
Procedure, shortened: as §1

NCI-H322M = test system: NCI-H322M
Procedure, shortened: as §1

NCI-H522 = test system: NCI-H522
Procedure, shortened: as §1

NCI-H596 = test system: NCI-H596
Procedure, shortened: as §1

NCI-H727 = test system: NCI-H727
Procedure, shortened: as §1

PC-3 [JPC-3] = test system: PC-3 [JPC-3]
Procedure, shortened: as §1

SK-MES-1 = test system: SK-MES-1
Procedure, shortened: as §1

SW 1573 = test system: SW 1573
Procedure, shortened: as §1

SW 900 = test system: SW 900
Procedure, shortened: as §1

COc1nc(C)cnc1NS(=O)(=O)c1cccnc1-c1ccc(-c2nnco2)cc1 [Zibotentan] + Nc1ncn([C@H]2C[C@H](O)[C@@H](CO)O2)c(=O)n1 [Decitabine] (partner 2 µM)
relative viability (A-427; first compound 0.08 µM): 0.537 | relative viability (A-427; first compound 0.253 µM): 0.542 | relative viability (A-427; first compound 0.8 µM): 0.613 | relative viability (A-427; first compound 2.53 µM): 0.582 | relative viability (ABC-1; first compound 0.08 µM): 0.829 | relative viability (ABC-1; first compound 0.253 µM): 1.12 | relative viability (ABC-1; first compound 0.8 µM): 0.939 | relative viability (ABC-1; first compound 2.53 µM): 1.06 | relative viability (EMC-BAC-2; first compound 0.08 µM): 1.01 | relative viability (EMC-BAC-2; first compound 0.8 µM): 0.968 | relative viability (EMC-BAC-2; first compound 2.53 µM): 1.01 | relative viability (HARA; first compound 0.08 µM): 0.551 | relative viability (HARA; first compound 0.8 µM): 0.515 | relative viability (HARA; first compound 2.53 µM): 0.497 | relative viability (HOP-62; first compound 0.08 µM): 0.169 | relative viability (HOP-62; first compound 0.253 µM): 0.19 | relative viability (HOP-62; first compound 0.8 µM): 0.209 | relative viability (HOP-62; first compound 2.53 µM): 0.207 | relative viability (LK-2; first compound 0.08 µM): 0.387 | relative viability (LK-2; first compound 0.253 µM): 0.289 | relative viability (LK-2; first compound 0.8 µM): 0.317 | relative viability (LK-2; first compound 2.53 µM): 0.213 | relative viability (LXF-289; first compound 0.08 µM): 0.357 | relative viability (LXF-289; first compound 0.253 µM): 0.346 | relative viability (LXF-289; first compound 0.8 µM): 0.409 | relative viability (LXF-289; first compound 2.53 µM): 0.367 | relative viability (NCI-H1792; first compound 0.08 µM): 0.491 | relative viability (NCI-H1792; first compound 0.253 µM): 0.549 | relative viability (NCI-H1792; first compound 0.8 µM): 0.547 | relative viability (NCI-H1792; first compound 2.53 µM): 0.575 | relative viability (NCI-H1944; first compound 0.08 µM): 0.433 | relative viability (NCI-H1944; first compound 0.253 µM): 0.431 | relative viability (NCI-H1944; first compound 0.8 µM): 0.425 | relative viability (NCI-H1944; first compound 2.53 µM): 0.426 | relative viability (NCI-H1993; first compound 0.08 µM): 0.639 | relative viability (NCI-H1993; first compound 0.253 µM): 0.576 | relative viability (NCI-H1993; first compound 0.8 µM): 0.521 | relative viability (NCI-H1993; first compound 2.53 µM): 0.61 | relative viability (NCI-H2009; first compound 0.08 µM): 0.404 | relative viability (NCI-H2009; first compound 0.253 µM): 0.398 | relative viability (NCI-H2009; first compound 0.8 µM): 0.417 | relative viability (NCI-H2009; first compound 2.53 µM): 0.377 | relative viability (NCI-H2170; first compound 0.08 µM): 0.449 | relative viability (NCI-H2170; first compound 0.253 µM): 0.463 | relative viability (NCI-H2170; first compound 0.8 µM): 0.341 | relative viability (NCI-H2170; first compound 2.53 µM): 0.463 | relative viability (NCI-H3122; first compound 0.08 µM): 0.472 | relative viability (NCI-H3122; first compound 0.253 µM): 0.379 | relative viability (NCI-H3122; first compound 0.8 µM): 0.357 | relative viability (NCI-H3122; first compound 2.53 µM): 0.377 | relative viability (NCI-H322M; first compound 0.08 µM): 0.74 | relative viability (NCI-H322M; first compound 0.253 µM): 0.679 | relative viability (NCI-H322M; first compound 0.8 µM): 0.733 | relative viability (NCI-H322M; first compound 2.53 µM): 0.856 | relative viability (NCI-H522; first compound 0.08 µM): 0.677 | relative viability (NCI-H522; first compound 0.253 µM): 0.5 | relative viability (NCI-H522; first compound 0.8 µM): 0.718 | relative viability (NCI-H522; first compound 2.53 µM): 0.756 | relative viability (NCI-H596; first compound 0.08 µM): 0.992 | relative viability (NCI-H596; first compound 0.253 µM): 0.911 | relative viability (NCI-H596; first compound 0.8 µM): 1.06 | relative viability (NCI-H596; first compound 2.53 µM): 1.04 | relative viability (NCI-H727; first compound 0.08 µM): 0.942 | relative viability (NCI-H727; first compound 0.253 µM): 0.826 | relative viability (NCI-H727; first compound 0.8 µM): 0.908 | relative viability (NCI-H727; first compound 2.53 µM): 0.874 | relative viability (PC-3 [JPC-3]; first compound 0.08 µM): 0.836 | relative viability (PC-3 [JPC-3]; first compound 0.253 µM): 0.777 | relative viability (PC-3 [JPC-3]; first compound 0.8 µM): 0.85 | relative viability (PC-3 [JPC-3]; first compound 2.53 µM): 0.851 | relative viability (SK-MES-1; first compound 0.08 µM): 0.389 | relative viability (SK-MES-1; first compound 0.253 µM): 0.285 | relative viability (SK-MES-1; first compound 0.8 µM): 0.447 | relative viability (SK-MES-1; first compound 2.53 µM): 0.365 | relative viability (SW 1573; first compound 0.08 µM): 0.611 | relative viability (SW 1573; first compound 0.8 µM): 0.702 | relative viability (SW 1573; first compound 2.53 µM): 0.613 | relative viability (SW 900; first compound 0.08 µM): 0.482 | relative viability (SW 900; first compound 0.253 µM): 0.345 | relative viability (SW 900; first compound 0.8 µM): 0.49 | relative viability (SW 900; first compound 2.53 µM): 0.438
